Where two headings read alike, the source gives them in different places.
What was measured:
[1] = solid form, known from prior patents (EP 298 650 B1, CA 1,314,876), cited from earlier work
[2] = Hygroscopicity of azithromycin forms; format: physicochemical; conditions: solid form
[3] = Extended vacuum drying, water (Karl-Fischer) and isopropanol (gas chromatography) content; format: physicochemical; conditions: vacuum 1-10 mm Hg, 50° C. to 60° C., beyond 12-24 hours
Protocol: According to this invention, azithromycin monohydrate isopropanol clathrate contains three molecules of isopropanol for every ten molecules of azithromycin monohydrate. The process comprises the dissolution of azithromycin in isopropanol to which water is added slowly while stirring, resulting in the precipitation of crystalline azithromycin monohydrate isopropanol clathrate. The volume of solvent used is such as to be sufficient to dissolve azithromycin. The addition of the water is carried out between 0° and 30° C. and preferably between 15° C. to 25° C. The product is filtered and washed with a mixture of water-isopropanol and dried under vacuum (1-10 mm Hg) at 50° C. to 60° C. for 12-24 hours to obtain azithromycin monohydrate isopropanol clathrate in high yields. […] The water content of azithromycin monohydrate isopropanol clathrate was measured by the Karl-Fischer method and its isopropanol content was determined by gas chromatography.

For `CC[C@H]1OC(=O)[C@H](C)[C@@H](O[C@H]2C[C@@](C)(OC)[C@@H](O)[C@H](C)O2)[C@H](C)[C@@H](O[C@@H]2O[C@H](C)C[C@H](N(C)C)[C@H]2O)[C@](C)(O)C[C@@H](C)CN(C)[C@H](C)[C@@H](O)[C@]1(C)O` [Azithromycin monohydrate, azithromycin monohydrate], the hygroscopicity ([1]; monohydrate) is listed as “hygroscopic”.
In the case of `CC[C@H]1OC(=O)[C@H](C)[C@@H](O[C@H]2C[C@@](C)(OC)[C@@H](O)[C@H](C)O2)[C@H](C)[C@@H](O[C@@H]2O[C@H](C)C[C@H](N(C)C)[C@H]2O)[C@](C)(O)C[C@@H](C)CN(C)[C@H](C)[C@@H](O)[C@]1(C)O` [azithromycin dihydrate], the hygroscopicity ([1]; dihydrate) is listed as “not hygroscopic”.
In the case of “azithromycin monohydrate isopropanol clathrate”, the hygroscopicity [2] is reported as “not hygroscopic” and the “effect of extension of vacuum drying on water and isopropanol content” value [3] is reported as “does not reduce either the water content or the isopropanol content”.
